Source: ChEMBL document CHEMBL4145551, “Mitochondria-targeting indolizino[3,2-c]quinolines as novel class of photosensitizers for photodynamic anticancer activity” (Eur J Med Chem, 2018)
The source made the active and inactive calls. No cut-off for these calls is given here.

Tests used:
[1] = Dark toxicity in human HeLa cells assessed as reduction in cell viability up to 10 uM measured after 24 hrs by MTT assay; format: cell-based
MCF7 [2] = experiment: Photocytotoxicity against human MCF7 cells assessed as reduction in cell viability preincubated for 1 hr followed blue LED light irradiation for 10 mins and measured after 24 hrs by MTT assay; format: functional, cell-based; settings: for IC50: MCF7, light or radiation study
A549 [3] = experiment: Photocytotoxicity against human A549 cells assessed as reduction in cell viability preincubated for 1 hr followed blue LED light irradiation for 10 mins and measured after 24 hrs by MTT assay; format: functional, cell-based; settings: for IC50: A549, light or radiation study
HeLa [4] = experiment: Photocytotoxicity against human HeLa cells assessed as chromatin condensation up to 10 uM preincubated for 1 hr followed by blue LED light irradiation for 5 mins and measured after 13 hrs by Hoechst 33258 staining based fluorescence microscopic method; format: functional, cell-based
HeLa [5] = experiment: Induction of ROS generation in human HeLa cells preincubated for 1 hr followed by blue LED light irradiation for 15 mins by DHE staining based HCS analysis; format: functional, cell-based
HeLa [6] = experiment: Photocytotoxicity against human HeLa cells assessed as reduction in cell viability preincubated for 1 hr followed blue LED light irradiation for 5 mins and measured after 24 hrs by MTT assay; format: functional, cell-based; settings: for IC50: light or radiation study
[7] = Induction of singlet oxygen production assessed as photodegradation of DPBF by measuring quantum yield after irradiation with 356 nanometer light by UV-Visible spectroscopic analysis; format: functional
DNA [8] = experiment: Induction of Escherichia coli pBR322 DNA cleavage at 20 uM after 30 mins under dark condition by agarose gel electrophoresis method; format: nucleic-acid assay; settings: 0.5 h
[9] = Dark toxicity in human A549 cells assessed as reduction in cell viability up to 10 uM measured after 24 hrs by MTT assay; format: cell-based; settings: a549, 24 h
[10] = Dark toxicity in human MCF7 cells assessed as reduction in cell viability up to 10 uM measured after 24 hrs by MTT assay; format: cell-based; settings: mcf7, 24 h
HeLa [11] = experiment: Photocytotoxicity against human HeLa cells assessed as reduction in cell viability preincubated for 1 hr followed blue LED light irradiation for 10 mins and measured after 24 hrs by MTT assay; format: functional, cell-based; settings: for IC50: light or radiation study
DNA [12] = experiment: Induction of Escherichia coli pBR322 DNA cleavage irradiated with blue LED light after 30 mins by agarose gel electrophoresis method; format: nucleic-acid assay
HeLa [13] = experiment: Photocytotoxicity against human HeLa cells assessed as plasma membrane blebbing up to 10 uM preincubated for 1 hr followed by blue LED light irradiation for 5 mins and measured after 13 hrs by Hoechst 33258 staining based fluorescence microscopic method; format: functional, cell-based
A549 [14] = experiment: Photocytotoxicity against human A549 cells assessed as reduction in cell viability preincubated for 1 hr followed blue LED light irradiation for 5 mins and measured after 24 hrs by MTT assay; format: functional, cell-based; settings: for IC50: A549, light or radiation study
MCF7 [15] = experiment: Photocytotoxicity against human MCF7 cells assessed as reduction in cell viability preincubated for 1 hr followed blue LED light irradiation for 5 mins and measured after 24 hrs by MTT assay; format: functional, cell-based; settings: for IC50: MCF7, light or radiation study
HeLa [16] = experiment: Photocytotoxicity against human HeLa cells assessed as cellular shrinkage up to 10 uM preincubated for 1 hr followed by blue LED light irradiation for 5 mins and measured after 13 hrs by Hoechst 33258 staining based fluorescence microscopic method; format: functional, cell-based
HeLa [17] = experiment: Photocytotoxicity against human HeLa cells assessed as DNA fragmentation up to 10 uM preincubated for 1 hr followed by blue LED light irradiation for 5 mins and measured after 13 hrs by Hoechst 33258 staining based fluorescence microscopic method; format: functional, cell-based
HeLa [18] = experiment: Photocytotoxicity against human HeLa cells assessed as cell death at 0.5 uM preincubated for 1 hr followed blue LED light irradiation for 5 mins and measured after 24 hrs by MTT assay relative to control; format: functional
HeLa [19] = experiment: Photocytotoxicity against human HeLa cells assessed as morphological changes at 5 uM preincubated for 1 hr followed by blue LED light irradiation for 10 mins and measured after 2.5 hrs by holotomographic method; format: functional, cell-based
DNA [20] = experiment: Induction of Escherichia coli pBR322 DNA cleavage at 20 uM irradiated with blue LED light after 30 mins in presence of H2O2 scavenger KI by agarose gel electrophoresis method; format: nucleic-acid assay
HeLa [21] = experiment: Photocytotoxicity against human HeLa cells assessed as reduction in cell viability at 2 uM preincubated for 1 hr followed blue LED light irradiation for 5 mins and measured after 24 hrs in presence of singlet oxygen scavenger histidine by MTT assay; format: functional, cell-based
DNA [22] = experiment: Induction of Escherichia coli pBR322 DNA cleavage at 20 uM irradiated with blue LED light after 30 mins in presence of singlet oxygen scavenger sodium azide by agarose gel electrophoresis method; format: nucleic-acid assay
HeLa [23] = experiment: Photocytotoxicity against human HeLa cells assessed as induction of mitochondrial membrane potential depolarization at 10 uM preincubated for 1 hr followed by blue LED light irradiation for 5 mins by TMRE staining based confocal microscopic method; format: functional, cell-based
HeLa [24] = experiment: Photocytotoxicity against human HeLa cells assessed as cell membrane blebbing at 10 uM preincubated for 1 hr followed by blue LED light irradiation for 5 mins by differential interference contrast imaging analysis; format: functional, cell-based
DNA [25] = experiment: Induction of Escherichia coli pBR322 DNA cleavage at 20 uM irradiated with blue LED light after 30 mins in presence of hydroxyl radical scavenger mannitol by agarose gel electrophoresis method; format: nucleic-acid assay
[26] = Drug uptake in human HeLa cell mitochondria at 10 uM after 1 hr by mitotracker red staining based confocal laser scanning microscopic method; format: ADME
MCF7 [27] = experiment: Photocytotoxicity against human MCF7 cells assessed as induction of mitochondrial membrane potential depolarization at 10 uM preincubated for 1 hr followed by blue LED light irradiation for 5 mins by TMRE staining based confocal microscopic method; format: functional, cell-based

| Structure (SMILES) | Activity [1] | Activity (MCF7 [2]) | IC50 (MCF7 [2]) [nM] | Activity (A549 [3]) | IC50 (A549 [3]) [nM] | Activity (HeLa [4]) | Activity (HeLa [5]) | Activity (HeLa [6]) | IC50 (HeLa [6]) [nM] | Activity [7] | Activity (DNA [8]) | Activity [9] | Activity [10] | Activity (HeLa [11]) | IC50 (HeLa [11]) [nM] | Activity (HeLa [13]) | Activity (A549 [14]) | IC50 (A549 [14]) [nM] | Activity (MCF7 [15]) | IC50 (MCF7 [15]) [nM] | also measured |
| --- | --- | --- | --- | --- | --- | --- | --- | --- | --- | --- | --- | --- | --- | --- | --- | --- | --- | --- | --- | --- | --- |
| Brc1ccc2cc3c4ccccc4nc(-c4ccco4)c3n2c1 | Toxic | Dose-dependent effect | 830 | Dose-dependent effect | 1590 | Active | Dose-dependent effect | Dose-dependent effect | 1140 | 0.6 | Non-Toxic | Toxic | Toxic | Dose-dependent effect | 810 | Active | Dose-dependent effect | 2160 | Dose-dependent effect | 1330 | Activity (DNA [12]): Dose-dependent effect; Activity (HeLa [16]): Active; Activity (HeLa [17]): Active |
| Clc1ccc(-c2nc3ccccc3c3cc4ccccn4c23)s1 | Non-Toxic | Dose-dependent effect | 1040 | Dose-dependent effect | 1030 | Active | Dose-dependent effect | Dose-dependent effect | 490 | 0.47 | Non-Toxic | Non-Toxic | Non-Toxic | Dose-dependent effect | 410 | Active | Dose-dependent effect | 1330 | Dose-dependent effect | 1680 | Activity (HeLa [18]): >50%; Activity (HeLa [16]): Active; Activity (HeLa [19]): Active; Activity (HeLa [17]): Active |
| Cc1cccn2c1cc1c3ccccc3nc(-c3cccs3)c12 | Non-Toxic | Dose-dependent effect | 1390 | Dose-dependent effect | 1990 | Active | Dose-dependent effect | Dose-dependent effect | 1170 | 0.42 | Non-Toxic | Non-Toxic | Non-Toxic | Dose-dependent effect | 550 | Active | Dose-dependent effect | 3380 | Dose-dependent effect | 2680 | Activity (DNA [20]): inactive; Activity (HeLa [21]): inactive; Activity (DNA [22]): inactive; Activity (HeLa [23]): Active; Activity (HeLa [24]): Active; Activity (DNA [12]): Dose-dependent effect; Activity (DNA [25]): Active; Drug uptake [26]: Active; Activity (MCF7 [27]): Active; Activity (HeLa [16]): Active; Activity (HeLa [17]): Active |
| Cc1cccn2c1cc1c3ccccc3nc(-c3ccc(Cl)o3)c12 | Non-Toxic | Dose-dependent effect | 620 | Dose-dependent effect | 1130 | Active | Dose-dependent effect | Dose-dependent effect | 3510 | 0.38 | Non-Toxic | Non-Toxic | Non-Toxic | Dose-dependent effect | 2070 | Active | Dose-dependent effect | 1430 | Dose-dependent effect | 930 | Activity (HeLa [16]): Active; Activity (HeLa [17]): Active |
| c1csc(-c2nc3ccccc3c3cc4ccccn4c23)c1 | Non-Toxic | Dose-dependent effect | 1550 | Dose-dependent effect | 1990 | Active | Dose-dependent effect | Dose-dependent effect | 1450 | 0.4 | Non-Toxic | Non-Toxic | Non-Toxic | Dose-dependent effect | 630 | Active | Dose-dependent effect | 4150 | Dose-dependent effect | 3460 | Activity (HeLa [21]): inactive; Activity (DNA [12]): Dose-dependent effect; Activity (HeLa [16]): Active; Activity (HeLa [17]): Active |
